The results in this text go back to US9289398B2, “Methods for the production of functional protein from DNA having a nonsense mutation and the treatment of disorders associated therewith” (PTC Therapeutics, Inc., priority 2006, dated 2016).

Each structure is given as a SMILES string.

The nature of the assay: Pulmonary function tests (FEV1, FVC), CF Phase 2 study. The assay is classed as in vivo, human. Here is the method: Pulmonary function tests, including FEV1, FVC, and MEF25-75, are measured using standard spirometry procedures. Assessments of pulmonary function (including MEF25-75, FVC, and, particularly, FEV1) have been acknowledged as definitive clinical endpoints in patients with CF (Food and Drug Administration, 62nd Anti-Infective Drugs Advisory Committee. Discussion of NDA for tobramycin solution for inhalation (Tobi®) for the management of cystic fibrosis patients. November, 1997; Tiddens, 2002, Pediatr. Pulmonol. 34(3): 228-31). […] Pulmonary function testing is simple to administer (even in patients as young as 7 years of age), and uses standardized equipment and techniques that are widely available. Interpretation is performed using well-established normative equations that account for patient age, height, and gender.
Clinical endpoints were evaluated using the procedures set forth above. TEPD measurements were made prior to treatment and on days 14 and 28 of Cycle 1 and Cycle 2. Nasal mucosal curettage was collected from each nostril of each patient prior to treatment and on days 14 and 28 of Cycle 1 and Cycle 2. Pulmonary tests, including FEV1, FVC and MEF25-75, were measured prior to treatment, on day −1 of Cycle 2, on day 13 or 14 of Cycle 1 and day 13 or 14 of Cycle 2 in the study being conducted in Israel and the same parameters were measured prior to treatment and on day 13 or 14 of Cycle 2 in the study being conducted in the United States.
Statistically significant results and positive trends for secondary endpoints were also observed. In particular, although the trials were not been powered to detect statistical significant changes in secondary endpoints, statistically significant improvements from study entry to the end of the higher-dose treatment cycle in the patients' mean FEV1, FVC and weight were observed.

Setting [1] is: study entry to end of higher dose treatment, percentage of normal.

`O=C(O)c1cccc(-c2noc(-c3ccccc3F)n2)c1` [3-[5-(2-fluoro-phenyl)-[1,2,4]oxadiazol-3-yl]-benzoic acid]: the “Mean FEV1, End of Higher Dose Treatment” value (percentage of normal for gender, age and height, study entry 65.8%, one patient not included) worked out at 69.1%. Besides, the “Mean FVC, End of Higher Dose Treatment” value (percentage of normal for gender, age and height, study entry 80.2%, one patient not included) is given as 85.1%. Also, under setting [1], the “Mean FEV1, Change” value is 3.3% and the “Mean FVC, Change” value was 4.9%.
